These results are taken from patent US20160010068A1, “FUSION POLYNUCLEOTIDES AND FUSION POLYPEPTIDES ASSOCIATED WITH CANCER AND PARTICULARLY MELANOMA AND THEIR USES AS THERAPEUTIC AND DIAGNOSTIC TARGETS” (priority 2013, published 2016).

Data set [1] deals with T1, PWWP2A-ROS1 fusion (Homo sapiens, UniProt P08922).
T1 construct: exon 1 of PWWP2A is fused with exon 36-43 of ROS1, which contains the tyrosine kinase domain; expressed in transfected cells; host or cells: melan-a cells (immortalized, non-tumorigenic mouse melanocytes), stably transduced with lentivirus (pLenti6.3/TO/V5-Dest)
T1 sequence (P08922 with tags, fused parts or gaps): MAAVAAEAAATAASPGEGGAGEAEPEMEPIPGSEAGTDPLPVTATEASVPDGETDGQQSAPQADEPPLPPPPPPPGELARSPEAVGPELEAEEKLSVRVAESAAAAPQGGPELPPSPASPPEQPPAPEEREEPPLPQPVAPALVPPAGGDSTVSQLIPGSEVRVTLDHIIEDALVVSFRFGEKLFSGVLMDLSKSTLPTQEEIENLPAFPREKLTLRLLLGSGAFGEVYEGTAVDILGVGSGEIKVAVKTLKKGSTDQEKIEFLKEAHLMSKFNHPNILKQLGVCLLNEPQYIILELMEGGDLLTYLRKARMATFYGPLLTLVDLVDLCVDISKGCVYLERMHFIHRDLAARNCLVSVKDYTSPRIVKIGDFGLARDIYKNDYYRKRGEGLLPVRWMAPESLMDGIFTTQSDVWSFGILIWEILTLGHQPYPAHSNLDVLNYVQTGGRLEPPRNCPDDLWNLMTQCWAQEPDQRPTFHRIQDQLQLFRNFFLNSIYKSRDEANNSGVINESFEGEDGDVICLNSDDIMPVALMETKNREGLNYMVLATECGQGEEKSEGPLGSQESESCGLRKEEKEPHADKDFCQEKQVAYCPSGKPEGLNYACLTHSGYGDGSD
Nature of the data set: Western blot of signaling in melan-a cells expressing the PWWP2A-ROS1 fusion, with crizotinib. The class given is cell-based. The conditions noted are these: representative of three independent experiments. An excerpt: FIG. 3 depicts ROS1 fusions. […] Scale bar, […]. Scale bar magnification, 50 mm. […] Scale bar, […]. Scale bar magnification, 50 mm. […] Scale bar, 10 mm. (c) Illustration of the PWWP2A-ROS1 kinase fusion. ROS1 is located on […], and PWWP2A on chromosome 5q33. Owing to genomic rearrangements, exon 1 of PWWP2A is fused with exon 36-43 of ROS1, which contains the tyrosine kinase domain. […] The indicated protein weight markers in kDa are estimated from molecular weight standards.
FIG. 8 depicts full western blots of FIG. 3d. (a) p-ROS1, (b) t-ROS1, (c) p-AKT, (d) t-AKT, (e) p-ERK, (f) t-ERK, (g) p-S6, (h) t-S6, (i) p-SHP2, (j) t-SHP2, (k) Hsp60. All molecular weight standards are indicated in kDa.
(A western blot detects proteins with antibodies after separation by electrophoresis.)

In data set [2] the target is T1, PWWP2A-ROS1 fusion. The experiment in a line: Western blot of phosphorylation in melan-a cells expressing PWWP2A-ROS1 fusion construct. It is filed as cell-based, mouse. The note with it: FIG. 3d.
Data set [3] has as its system melanoma. The note with it: twice daily; phase I trial; cited from earlier work.

For the compound `C[C@@H](Oc1cc(-c2cnn(C3CCNCC3)c2)cnc1N)c1c(Cl)ccc(F)c1Cl` [Crizotinib, crizotinib], in data set [1], the p-AKT entry is “inhibited at least partially”, the p-S6 result is “inhibited at least partially”, the p-SHP2 entry was “inhibited at least partially” and the “phosphorylation of the chimeric PWWP2A-ROS1 fusion protein” value is given as “inhibited at least partially”. In data set [2], the “phosphorylation of ERK” value is reported as “not”; the “phosphorylation of PWWP2A-ROS1, AKT, S6 and SHP2” value is given as “at least partially inhibited”.

As for `CCCS(=O)(=O)Nc1ccc(F)c(C(=O)c2c[nH]c3ncc(-c4ccc(Cl)cc4)cc23)c1F` [vemurafenib], the maximum tolerated dose in data set [3] is on record as 60 mg.
